Laboratory results taken from the supplement of paper PMC10627819.
In brackets after ≈: the same amount, converted by molar mass.

What was measured:
B. subtilis 168 [1] = tested on: B. subtilis 168
S. aureus DSM 20231 [2] = tested on: S. aureus DSM 20231
S. aureus Newman [3] = tested on: S. aureus Newman
S. pneumoniae D39V [4] = tested on: S. pneumoniae D39V
B. subtilis 168 [5] = test: fitness (endpoint OD595 vs no drug) (fraction); higher = more growth
Procedure, shortened: (§1)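 Fitness compares growth at the stationary-phase transition with the robust mean of no-drug control wells, as a ratio of optical densities. The ratio is capped at 1. Wells of 384-well plates held 30 µl, or 55 µl for S. pneumoniae, inoculated at OD595 0.01. Readings at OD595 every 30 min for 14 h at 37 °C were corrected against the first reading.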

S. aureus DSM 20231 [6] = test: as above
Procedure, shortened: as §1

S. aureus Newman [7] = test: as above
Procedure, shortened: as §1

S. pneumoniae D39V [8] = test: as above
Procedure, shortened: as §1

CCCCCCCCCC(=O)N[C@@H](Cc1c[nH]c2ccccc12)C(=O)N[C@H](CC(N)=O)C(=O)N[C@@H](CC(=O)O)C(=O)N[C@@H]1C(=O)NCC(=O)N[C@@H](CCCN)C(=O)N[C@@H](CC(=O)O)C(=O)N[C@H](C)C(=O)N[C@@H](CC(=O)O)C(=O)NCC(=O)N[C@H](CO)C(=O)N[C@@H]([C@H](C)CC(=O)O)C(=O)N[C@@H](CC(=O)c2ccccc2N)C(=O)O[C@@H]1C [Daptomycin]
Conditions | MIC [µg/mL]
B. subtilis 168 [1] | 0.5 (≈ 0.309 µM)
S. aureus DSM 20231 [2] | 2 (≈ 1.23 µM)
S. aureus Newman [3] | 1 (≈ 0.617 µM)
S. pneumoniae D39V [4] | 8 (≈ 4.94 µM)

fitness
Conditions | 0.125 µg/mL | 0.25 µg/mL | 0.5 µg/mL | 1 µg/mL | 2 µg/mL | 4 µg/mL
B. subtilis 168 [5] | 0.941 | 0.944 | 0.934 | – | – | –
S. aureus DSM 20231 [6] | 0.998 | 0.989 | ≥ 1 | ≥ 1 | ≥ 1 | –
S. aureus Newman [7] | 0.954 | 0.964 | 0.964 | 0.98 | ≥ 1 | –
S. pneumoniae D39V [8] | – | – | – | 0.875 | 0.889 | 0.853
